The source of these data is ChEMBL document CHEMBL3797164, “Transfer of SAR information from hypotensive indazole to indole derivatives acting at α-adrenergic receptors: In vitro and in vivo studies” (Eur J Med Chem, 2016).

By Ki is commonly meant the equilibrium dissociation constant of an inhibitor or competing ligand from its target. High values mean a looser hold on the target, low ones a stronger hold on the target. The term EC50 denotes the concentration at which the effect is half-maximal.

Series [1] concerns the target Nischarin (Rattus norvegicus, UniProt Q4G017). The series is described as follows: Displacement of [3H]clonidine from Imidazoline receptor 1 in Sprague-Dawley rat kidney P2 membranes after […] by liquid scintillation counting. A general note: Loss of bound radioactivity is the signal in a displacement assay; it reports binding, not function.
In series [2] the test system is Rattus norvegicus. The series is described as follows: Antihypertensive activity in anesthetized Wistar rat assessed as change in heart rate at 0.1 mg/kg, iv administered as bolus dose after 5 mins (reference value: -2.9 […]). The format is functional.
The target in series [3] is T1, Adrenergic receptor alpha-2 (Rattus norvegicus, UniProt P22086+P19328+P22909).
T1 sequence (P22086 whole entry): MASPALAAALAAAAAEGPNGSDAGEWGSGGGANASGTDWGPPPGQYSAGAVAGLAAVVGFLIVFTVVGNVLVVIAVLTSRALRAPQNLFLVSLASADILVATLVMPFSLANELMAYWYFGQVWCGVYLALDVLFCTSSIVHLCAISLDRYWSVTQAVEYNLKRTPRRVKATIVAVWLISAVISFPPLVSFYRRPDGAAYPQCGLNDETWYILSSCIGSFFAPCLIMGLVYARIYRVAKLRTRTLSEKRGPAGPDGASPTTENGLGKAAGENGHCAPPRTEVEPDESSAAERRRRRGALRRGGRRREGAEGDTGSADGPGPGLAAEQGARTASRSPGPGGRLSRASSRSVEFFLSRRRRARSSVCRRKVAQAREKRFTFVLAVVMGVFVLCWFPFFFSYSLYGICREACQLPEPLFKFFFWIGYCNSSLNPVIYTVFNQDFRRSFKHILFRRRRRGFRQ
T1 sequence (P19328 whole entry): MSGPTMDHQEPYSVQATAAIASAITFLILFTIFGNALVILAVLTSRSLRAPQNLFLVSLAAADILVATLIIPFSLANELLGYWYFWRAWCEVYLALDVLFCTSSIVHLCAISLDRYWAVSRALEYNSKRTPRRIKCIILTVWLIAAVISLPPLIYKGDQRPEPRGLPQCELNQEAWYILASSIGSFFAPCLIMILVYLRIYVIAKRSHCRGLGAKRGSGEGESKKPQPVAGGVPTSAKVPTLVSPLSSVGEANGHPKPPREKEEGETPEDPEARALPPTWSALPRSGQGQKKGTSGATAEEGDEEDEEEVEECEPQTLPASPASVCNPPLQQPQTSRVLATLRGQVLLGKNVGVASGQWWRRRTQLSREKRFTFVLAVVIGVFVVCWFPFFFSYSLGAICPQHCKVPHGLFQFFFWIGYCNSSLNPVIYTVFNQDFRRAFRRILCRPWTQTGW
T1 sequence (P22909 whole entry): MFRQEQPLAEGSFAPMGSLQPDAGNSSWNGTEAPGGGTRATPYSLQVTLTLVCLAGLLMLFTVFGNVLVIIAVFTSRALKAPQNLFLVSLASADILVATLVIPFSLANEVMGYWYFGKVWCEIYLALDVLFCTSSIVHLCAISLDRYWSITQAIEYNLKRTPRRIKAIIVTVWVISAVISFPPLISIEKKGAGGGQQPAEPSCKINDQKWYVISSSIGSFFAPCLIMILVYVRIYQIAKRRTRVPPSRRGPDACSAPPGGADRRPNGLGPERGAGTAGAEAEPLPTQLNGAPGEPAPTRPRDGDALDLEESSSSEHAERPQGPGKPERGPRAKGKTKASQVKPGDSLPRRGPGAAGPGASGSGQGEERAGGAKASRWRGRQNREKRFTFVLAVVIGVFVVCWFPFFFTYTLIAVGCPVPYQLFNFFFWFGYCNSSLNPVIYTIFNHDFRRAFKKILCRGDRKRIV
The experiment in a line: Displacement of [3H]RX821002 from Alpha-2 adrenergic receptor in Sprague-Dawley rat brain P2 membranes after […] by liquid scintillation counting.

Series [4] relates to Rattus norvegicus. The series is described as follows: Antihypertensive activity in anesthetized Wistar rat assessed as change in mean arterial blood pressure at 0.1 mg/kg, iv administered as bolus dose after 2 mins. Type of series: functional.
The test system of series [5] is Rattus norvegicus. The series is described as follows: Neurotoxicity in Sprague-Dawley rat assessed as induction of sedative-hypnotic state at 10 to 500 ug/kg, ip after 30 mins by LORR test. The format is toxicity, organism-based. The note with it: in vivo, 0.5 h.
Series [6] deals with T2, Adrenergic receptor alpha-2 (Homo sapiens, UniProt P08913+P18825+P18089).
T2 sequence (P08913 whole entry): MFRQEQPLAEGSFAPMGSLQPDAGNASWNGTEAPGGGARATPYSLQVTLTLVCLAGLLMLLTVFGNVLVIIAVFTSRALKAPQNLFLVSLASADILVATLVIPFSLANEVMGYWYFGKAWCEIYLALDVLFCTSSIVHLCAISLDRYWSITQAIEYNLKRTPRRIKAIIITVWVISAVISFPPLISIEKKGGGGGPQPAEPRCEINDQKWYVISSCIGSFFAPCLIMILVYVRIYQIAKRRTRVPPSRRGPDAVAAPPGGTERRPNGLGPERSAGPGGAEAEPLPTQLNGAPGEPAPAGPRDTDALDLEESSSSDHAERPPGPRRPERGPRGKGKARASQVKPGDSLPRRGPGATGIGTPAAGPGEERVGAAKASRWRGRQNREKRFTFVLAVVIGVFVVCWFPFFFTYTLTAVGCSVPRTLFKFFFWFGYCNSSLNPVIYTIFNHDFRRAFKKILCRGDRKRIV
T2 sequence (P18825 whole entry): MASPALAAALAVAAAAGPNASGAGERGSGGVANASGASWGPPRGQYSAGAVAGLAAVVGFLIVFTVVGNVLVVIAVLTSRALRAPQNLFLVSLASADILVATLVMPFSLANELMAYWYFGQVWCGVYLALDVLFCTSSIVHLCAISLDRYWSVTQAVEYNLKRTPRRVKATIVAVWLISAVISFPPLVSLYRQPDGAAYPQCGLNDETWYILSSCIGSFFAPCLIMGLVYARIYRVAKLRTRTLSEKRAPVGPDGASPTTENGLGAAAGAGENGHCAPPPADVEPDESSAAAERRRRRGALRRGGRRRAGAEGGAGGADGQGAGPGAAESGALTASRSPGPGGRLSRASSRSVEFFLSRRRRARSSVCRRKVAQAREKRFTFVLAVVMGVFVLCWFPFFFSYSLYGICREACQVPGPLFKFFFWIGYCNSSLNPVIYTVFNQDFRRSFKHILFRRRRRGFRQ
T2 sequence (P18089 whole entry): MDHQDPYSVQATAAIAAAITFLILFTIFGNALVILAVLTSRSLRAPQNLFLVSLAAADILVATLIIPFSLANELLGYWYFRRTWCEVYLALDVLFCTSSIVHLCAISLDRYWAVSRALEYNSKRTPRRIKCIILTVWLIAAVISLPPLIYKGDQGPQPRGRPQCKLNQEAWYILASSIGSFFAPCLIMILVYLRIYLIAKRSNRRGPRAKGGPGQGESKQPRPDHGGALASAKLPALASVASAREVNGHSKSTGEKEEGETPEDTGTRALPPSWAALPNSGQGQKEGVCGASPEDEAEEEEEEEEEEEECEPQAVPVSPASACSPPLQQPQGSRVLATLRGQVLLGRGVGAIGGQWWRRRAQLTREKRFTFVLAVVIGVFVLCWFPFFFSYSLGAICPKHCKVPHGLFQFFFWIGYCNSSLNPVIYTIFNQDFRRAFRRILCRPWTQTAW
The series is described as follows: Agonist activity at human recombinant Alpha-2 adrenergic receptor expressed in CHOK1 cells after 30 mins by [35S]GTPgammaS binding assay. Type of series: functional, cell-based. Particulars: cho-k1. (GTPγS is a poorly hydrolysed GTP analogue; its binding reports G protein activation.)

Sequence of Nischarin (Q4G017 whole entry): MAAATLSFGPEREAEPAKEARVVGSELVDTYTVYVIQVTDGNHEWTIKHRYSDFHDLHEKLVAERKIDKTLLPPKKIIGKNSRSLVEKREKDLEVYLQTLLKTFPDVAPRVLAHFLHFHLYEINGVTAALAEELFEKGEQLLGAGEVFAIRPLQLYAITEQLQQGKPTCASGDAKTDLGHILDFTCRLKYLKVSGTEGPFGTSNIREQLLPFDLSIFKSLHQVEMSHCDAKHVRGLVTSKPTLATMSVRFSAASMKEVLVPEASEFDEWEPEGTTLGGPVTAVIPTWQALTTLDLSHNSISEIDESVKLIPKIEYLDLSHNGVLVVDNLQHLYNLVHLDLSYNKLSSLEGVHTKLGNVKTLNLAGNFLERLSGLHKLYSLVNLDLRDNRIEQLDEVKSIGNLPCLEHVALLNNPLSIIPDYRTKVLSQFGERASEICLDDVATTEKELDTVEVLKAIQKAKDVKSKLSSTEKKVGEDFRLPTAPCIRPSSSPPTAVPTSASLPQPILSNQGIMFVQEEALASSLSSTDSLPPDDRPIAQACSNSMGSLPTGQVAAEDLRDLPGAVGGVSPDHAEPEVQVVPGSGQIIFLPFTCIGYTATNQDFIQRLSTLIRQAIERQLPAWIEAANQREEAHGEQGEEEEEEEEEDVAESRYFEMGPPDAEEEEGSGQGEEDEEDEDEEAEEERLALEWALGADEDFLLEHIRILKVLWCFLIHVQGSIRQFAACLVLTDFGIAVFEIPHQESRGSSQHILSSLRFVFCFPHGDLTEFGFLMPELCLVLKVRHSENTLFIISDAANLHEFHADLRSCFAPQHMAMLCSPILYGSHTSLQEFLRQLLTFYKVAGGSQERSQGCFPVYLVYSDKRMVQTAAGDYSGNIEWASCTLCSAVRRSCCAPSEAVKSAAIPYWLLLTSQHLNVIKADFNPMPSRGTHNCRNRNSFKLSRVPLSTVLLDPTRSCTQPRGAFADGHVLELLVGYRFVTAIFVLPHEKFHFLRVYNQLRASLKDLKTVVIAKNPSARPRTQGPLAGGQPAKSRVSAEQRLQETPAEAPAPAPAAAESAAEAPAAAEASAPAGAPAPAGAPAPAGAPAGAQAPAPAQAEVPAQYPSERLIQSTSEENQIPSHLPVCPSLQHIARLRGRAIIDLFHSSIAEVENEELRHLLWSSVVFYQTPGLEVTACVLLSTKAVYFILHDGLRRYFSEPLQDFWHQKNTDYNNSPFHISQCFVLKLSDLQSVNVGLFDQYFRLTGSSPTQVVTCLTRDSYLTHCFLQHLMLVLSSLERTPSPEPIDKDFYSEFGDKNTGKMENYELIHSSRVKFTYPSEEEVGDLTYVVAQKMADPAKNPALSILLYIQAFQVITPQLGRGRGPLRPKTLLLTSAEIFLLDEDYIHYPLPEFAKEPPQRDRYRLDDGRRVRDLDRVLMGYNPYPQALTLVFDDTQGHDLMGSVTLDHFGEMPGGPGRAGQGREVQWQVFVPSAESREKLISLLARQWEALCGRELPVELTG

Take `Cl.c1ccc2c(c1)ccn2CC1=NCCN1`: the Ki in series [1] was found to be 81400 nM; in series [3], 33.5 nM. Moreover, the Activity in series [2] is recorded as -100.1 bpm; in series [4] it was 34.1 mmHg.

Consider `Cl.Clc1cccc2ccn(CC3=NCCN3)c12`, for which the Ki in series [1] stood at 10300 nM; in series [3], 6.34 nM. Moreover, the values for the Activity entry in series [5], in series [2] and in series [4] were “Non-toxic”, -132 bpm and 15.2 mmHg, respectively. The EC50 in series [6] is reported as 3600 nM.

Regarding `Br.Cc1cccc2ccn(CC3=NCCN3)c12`, the Ki in series [1] was found to be 1000 nM; in series [3] it was 16.63 nM. Besides, the Activity is reported as -83.3 bpm in series [2] and 13.4 mmHg in series [4]. Also, in series [6], the EC50 is reported as 7.9 nM.
